Values joined by “and” are separate entries in the source; they are usually repeats but may differ in a detail not shown here. Equal entries are not always repeated.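 Briefly, cells in 96-well plates were exposed to five compound concentrations for 48 h, and endpoints were estimated by linear interpolation. Abbreviation: GI50, concentration required for 50% inhibition of growth. TGI: total growth inhibition.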
Experiments:
Assay in all cases: NCI-60 cell line screen, 48 h
SK-OV-3 ovarian = test system: SK-OV-3 ovarian
SF-295 CNS = test system: SF-295 CNS
HCT-15 colon = test system: HCT-15 colon
HOP-62 NSCLC = test system: HOP-62 NSCLC
TK-10 renal = test system: TK-10 renal
SNB-19 CNS = test system: SNB-19 CNS
786-0 renal = test system: 786-0 renal
UACC-62 melanoma = test system: UACC-62 melanoma
MALME-3M melanoma = test system: MALME-3M melanoma
T-47D breast = test system: T-47D breast

| SMILES | TGI (SK-OV-3 ovarian) | TGI (SF-295 CNS) | TGI (HCT-15 colon) | TGI (HOP-62 NSCLC) | TGI (TK-10 renal) | TGI (SNB-19 CNS) | TGI (786-0 renal) | TGI (UACC-62 melanoma) | TGI (MALME-3M melanoma) | TGI (T-47D breast) | GI50 (SK-OV-3 ovarian) [µM] | GI50 (SF-295 CNS) [µM] | GI50 (HCT-15 colon) [µM] | GI50 (HOP-62 NSCLC) [µM] | GI50 (TK-10 renal) [µM] | GI50 (SNB-19 CNS) [µM] | GI50 (786-0 renal) [µM] | GI50 (UACC-62 melanoma) [µM] | GI50 (MALME-3M melanoma) [µM] | GI50 (T-47D breast) [µM] |
| --- | --- | --- | --- | --- | --- | --- | --- | --- | --- | --- | --- | --- | --- | --- | --- | --- | --- | --- | --- | --- |
| CCOC(=O)C(=O)N=Nc1nc2c(O)c3ccccc3c(O)c2s1 | 34.4 µM | 12.3 µM | 6.49 µM | 24.7 µM | 39.6 µM | 28.9 µM | 22.8 µM | 11.5 µM | 3.48 µM | 35.8 µM | – | – | – | – | – | – | – | – | – | – |
| CC[C@@H](C(=O)[C@@H](C)[C@@H](O)[C@H](C)[C@@H]1O[C@@H]([C@@H](CC)C(=O)O)CC[C@@H]1C)[C@H]1OC2(C=C[C@@H](O)[C@]3(CC[C@@](C)([C@H]4CC[C@](O)(CC)[C@H](C)O4)O3)O2)[C@H](C)C[C@@H]1C (some centres not stated) | 22.6 µM | 19.8 µM | > 50 µM | 20.7 µM | 20.1 µM | > 14.2 µM | 12.4 µM | 1.55 µM | 0.86 µM | 10.4 µM | 1.76 | 0.263 | 1.42 | 0.447 | 1.25 | 0.577 | 0.589 | 0.701 | 0.224 | 0.174 |
| O=C(NNC(=O)c1ccncc1)c1ccncc1 | > 100 µM | > 100 µM | > 100 µM | > 100 µM | > 100 µM | > 100 µM | > 100 µM | > 100 µM | > 100 µM | > 100 µM | – | – | – | – | – | – | – | – | – | – |
| COc1c(CNC(=O)CCl)cc2[nH]c(C)cc2c1CNC(=O)CCl | 86.4 µM | 71.9 µM | > 100 µM | 20.2 µM | 56.7 µM | 91 µM | 15.4 µM | 4.11 µM | 50.3 µM | 23.1 µM | 12.4 | 12.8 | 14.9 | 6.1 | 9.17 | 12.5 | 3.8 | 1.28 | 16.1 | 3.55 |
| COc1ccc(-c2nn(-c3cccc(NC(=O)Nc4cc(C(F)(F)F)cc(C(F)(F)F)c4)c3)cc2-c2ccncc2)cc1Cl | 7.38 µM | 3.36 µM | 4.08 µM | 3.29 µM | 10.9 µM | 18.2 µM | 2.74 µM | 3.11 µM | 4.2 µM | 7.17 µM | 1.52 | 1.01 | 0.962 | 1.09 | 1.67 | 1.62 | 0.976 | 0.948 | 1.23 | 1.07 |
| O=C1c2ccccc2-c2c1c1ccccc1c(=O)n2CCCN1CCN(CCCn2c3c(c4ccccc4c2=O)C(=O)c2ccccc2-3)CC1 | > 100 µM | > 86.1 µM | > 100 µM | 53.4 µM | > 70.8 µM | > 100 µM | > 32 µM | > 100 µM | > 100 µM | > 100 µM | > 100 | 12.6 | > 79.7 | 6.41 | 22.7 | 99.4 | 2.22 | > 100 | > 57.6 | > 100 |
| O=C1C(Cl)=C(Nc2cccc(O)c2)C(=O)N1c1ccc(Cl)c(Cl)c1 | 73.3 µM | 83.5 µM | 45.5 µM | 32.5 µM | 63.8 µM | > 100 µM | 35.3 µM | > 100 µM | 55 µM | > 100 µM | 25.5 | 25.9 | 19.9 | 16.4 | 25.7 | 36 | 17.7 | 27.6 | 19.7 | 41 |
| COC(=O)Nc1nc2cc3c(cc2s1)OCCO3 | > 50 µM | > 50 µM | > 50 µM | > 50 µM | > 50 µM | > 50 µM | > 50 µM | > 50 µM | > 50 µM | > 50 µM | > 50 | > 50 | > 50 | > 50 | > 50 | > 50 | > 50 | > 50 | > 50 | > 50 |
| COc1ccc(Cc2cnc(NC(=O)c3sc4ccccc4c3Cl)s2)cc1 | > 100 µM | > 100 µM | > 100 µM | > 100 µM | > 100 µM | > 100 µM | > 100 µM | > 100 µM | > 100 µM | > 100 µM | 0.619 | 0.383 | 0.378 | 0.513 | 4.31 | 0.461 | 0.652 | 0.468 | 0.81 | 0.768 |
| CC(=O)OC(C)(C)N=Nc1ccc(Br)cc1 | > 100 µM | > 60.1 µM | > 100 µM | > 100 µM | > 87.9 µM | > 100 µM | > 100 µM | > 100 µM | > 100 µM | 44.4 µM | – | – | – | – | – | – | – | – | – | – |
| COc1cccc(C2C3=C(COC3=O)N(CCO)c3cc4c(cc32)OCCO4)c1 (configuration not stated) | 4.28 µM | – | > 50 µM | > 50 µM | – | > 15.8 µM | > 50 µM | > 50 µM | > 50 µM | > 50 µM | 0.128 | 0.0389 | 0.21 | 0.287 | 0.891 | – | 0.198 | – | 49.1 | 0.239 |
| Nc1ccccc1NC(=O)c1ccc(CN2CCC/C(=C\c3cccc(Cl)c3)C2=O)cc1 | 26.4 µM | 15.2 µM | > 100 µM | > 100 µM | 5.88 µM | > 100 µM | 2.17 µM | 14.6 µM | 16.4 µM | 56.6 µM | 0.626 | 1.05 | 0.0419 | 0.388 | 1.11 | 0.355 | 0.366 | 0.0517 | 1.59 | 3.34 |
| COc1ccc(C2=C(c3cc(OC)c(OC)c(OC)c3)C(=O)CC2)cc1 | – | > 20.5 µM | > 100 µM | > 100 µM | > 100 µM | > 100 µM | > 100 µM | > 100 µM | > 100 µM | > 100 µM | 0.179 | 0.0548 | 0.147 | 0.355 | 12.3 | 0.41 | 0.425 | 0.0812 | > 100 | 24.6 |
| CN(C)CCCNc1nccc(-c2c(-c3ccc(F)cc3)nn3cc(C(F)(F)F)ccc23)n1 | > 25 µM | > 17.2 µM | > 25 µM | > 25 µM | > 25 µM | > 25 µM | > 25 µM | 11.1 µM | 9.36 µM | > 25 µM | 20.1 | 6.91 | 7.26 | 8.53 | 12.9 | > 19.6 | 7.69 | 4.88 | 4.32 | 12.5 |
| C[C@H]1CC[C@@H]2[C@@H](C)[C@H]3[C@H](C[C@H]4[C@@H]5CC=C6C[C@@H](O)CC[C@]6(C)[C@H]5C[C@H](O)[C@]34C)N2C1 | > 100 µM | > 100 µM | > 100 µM | > 100 µM | > 100 µM | > 100 µM | > 100 µM | > 100 µM | > 100 µM | > 100 µM | – | – | – | – | – | – | – | – | – | – |
| CC1=C(/C=C/C(C)=C/C=C/C(C)=C/C(=O)Nc2ccc(O)cc2)C(C)(C)CCC1 | 9.71 µM and 17.2 µM | 3.74 µM and 12.3 µM | 17.9 µM and 25.2 µM | 9.95 µM and 15.2 µM | 15.5 µM and 35.4 µM | 20.4 µM and 18.2 µM | 4.36 µM and 10.9 µM | 6.94 µM and 7.34 µM | 6.48 µM and 18.7 µM | 9.24 µM and 15.5 µM | 2.82 | 0.932 | – | – | 5.07 | 4.83 | 1.72 | – | 2.1 | 1.31 |
